This assay has as its target T1, human recombinant ROCK II (Homo sapiens, UniProt O75116).
T1 construct: recombinant human ROCK-II residues 11-552; His6 (N); purchased Millipore GmbH, Schwalbach, Germany
The assay is described as follows: Determination of Rho Kinase Inhibition (ROCK II, Caliper peptide phosphorylation assay). It is filed as biochemical. The following applies: tested in the form (salt or free base) obtained in the examples. As for the experimental part: Determination of Rho Kinase Inhibition To measure Rho-kinase inhibition, IC50 values were determined according to the following protocol: Active human recombinant ROCK II (N-terminal His6-tagged recombinant human ROCK-II residues 11-552) was purchased from Millipore GmbH, Schwalbach, Germany. The peptide substrate, Fluorescein-AKRRRLSSLRA-COOH, was obtained from JPT Peptide Technologies, Berlin, Germany. Adenosine-5′-triphosphate (ATP), bovine serum albumine (BSA), dimethylsulphoxide (DMSO), 4-(2-hydroxyethyl)piperazine-1-ethanesulfonic acid (Hepes), Brij-35, dithiothreitol (DTT) and Pluronic F-68 were purchased from Sigma-Aldrich, Munich, Germany. Tris(hydroxymethyl)-aminomethane (Tris), magnesium chloride, NaOH, 1M HCl and EDTA were obtained from Merck Biosciences, Darmstadt, Germany. “Complete” protease inhibitor was from Roche Diagnostics, Mannheim, Germany. Test compounds were diluted to the appropriate concentrations in buffer 1 (25 mM Tris-HCl, pH 7.4, 5 mM MgCl2, 2 mM DTT, 0.02% (w/v) BSA, 0.01% Pluronic F-68 and 3% DMSO). The ROCK II enzyme was diluted to a concentration of 100 ng/ml in buffer 2 (25 mM Tris-HCl, pH 7.4, 5 mM MgCl2, 2 mM DTT and 0.02% (w/v) BSA). The peptide substrate and ATP were diluted to concentrations of 3 μM and 120 μM, respectively, in the buffer 2. Two μl of the compound solution were mixed with 2 μl of the diluted enzyme in a 384-well small volume microtiter plate (Greiner, Bio-One, Frickenhausen, Germany), and the kinase reaction was initiated by addition of 2 μl of the solution containing peptide substrate and ATP. After 60 min incubation at 32° C., the reaction was stopped by addition of 20 μl of a solution containing 100 mM Hepes-NaOH, pH 7.4, 0.015% (v/v) Brij-35, 45 mM EDTA and 0.227% chip coating reagent 1 (Caliper Lifescience Inc, Hopkinton, Mass.). Phosphorylation of the substrate peptide was then detected on a Caliper 3000 instrument essentially as described by Pommereau et al (J. Biomol. Screening 2004, 9(5), 409-416). Separation conditions were as follows: Pressure −1.3 psi, upstream voltage −1562 V, downstream voltage −500 V, sample sip time 200 ms. Positive controls (buffer 1 instead of compound) and negative controls (buffer 1 instead of compound and buffer 2 instead of ROCK II) were run in parallel on each plate. The following products/compounds were tested in said assay by using the respective form (salt or free base) obtained as in the examples described above and the following activities were measured

Bounds are passed on as bounds.

T1 sequence (O75116 11-552): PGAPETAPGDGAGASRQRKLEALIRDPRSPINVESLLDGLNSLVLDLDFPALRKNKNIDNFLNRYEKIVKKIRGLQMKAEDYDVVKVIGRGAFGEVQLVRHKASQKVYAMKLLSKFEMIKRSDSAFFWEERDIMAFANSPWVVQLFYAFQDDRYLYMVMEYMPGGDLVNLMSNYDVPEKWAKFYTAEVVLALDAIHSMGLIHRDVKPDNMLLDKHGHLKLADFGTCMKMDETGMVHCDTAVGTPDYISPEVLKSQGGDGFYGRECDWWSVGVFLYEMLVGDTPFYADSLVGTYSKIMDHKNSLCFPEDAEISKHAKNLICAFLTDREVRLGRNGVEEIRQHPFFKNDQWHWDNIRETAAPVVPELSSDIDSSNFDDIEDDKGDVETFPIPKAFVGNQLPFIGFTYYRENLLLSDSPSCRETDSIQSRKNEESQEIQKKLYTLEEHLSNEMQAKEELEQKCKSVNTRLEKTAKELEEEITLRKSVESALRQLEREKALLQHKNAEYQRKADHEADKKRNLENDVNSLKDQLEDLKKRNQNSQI

With `NC1C2CC3CC1CC(Oc1cc4cc[nH]c(=O)c4cc1Cl)(C3)C2` (single isomer, unassigned) [Example 1, 6-(4-Amino-adamantan-1-yloxy)-7-chloro-2H-isoquinolin-1-one], the IC50 (usually the point on the concentration scale where inhibition reaches its midpoint) is 10 to 100 nM. Still for that read-out and setting: to `C=CCC1(N)C2CC3CC1CC(Oc1cc4cc[nH]c(=O)c4cc1Cl)(C3)C2` (single isomer, unassigned) [Example 3, 6-(4-Allyl-4-amino-adamantan-1-yloxy)-7-chloro-2H-isoquinolin-1-one] belongs 10 to 100 nM. Turning to `C=CCC1(N)C2CC3CC1CC(Oc1cc4cc[nH]c(=O)c4cc1Cl)(C3)C2` (single isomer, unassigned) [Example 4, 6-(4-Allyl-4-amino-adamantan-1-yloxy)-7-chloro-2H-isoquinolin-1-one], the 50% inhibitory concentration (IC50) is 100 to 1000 nM. The same measure, in the same setting: the same measure for `CCCC1(N)C2CC3CC1CC(Oc1cc4cc[nH]c(=O)c4cc1Cl)(C3)C2` (single isomer, unassigned) [Example 5, 6-(4-Amino-4-propyl-adamantan-1-yloxy)-7-chloro-2H-isoquinolin-1-one]: 10 to 100 nM; for `CCCC1(N)C2CC3CC1CC(Oc1cc4cc[nH]c(=O)c4cc1Cl)(C3)C2` (single isomer, unassigned) [Example 6, 6-(4-Amino-4-propyl-adamantan-1-yloxy)-7-chloro-2H-isoquinolin-1-one]: 100 to 1000 nM; for `CC1(N)C2CC3CC1CC(Oc1cc4cc[nH]c(=O)c4cc1Cl)(C3)C2` (single isomer, unassigned) [Example 8, 6-(4-Amino-4-methyl-adamantan-1-yloxy)-7-chloro-2H-isoquinolin-1-one]: 10 to 100 nM. Consider `NC1(c2ccccc2)C2CC3CC1CC(Oc1cc4cc[nH]c(=O)c4cc1Cl)(C3)C2` (single isomer, unassigned) [Example 9, 6-(4-Amino-4-phenyl-adamantan-1-yloxy)-7-chloro-2H-isoquinolin-1-one], for which the IC50 was 100 to 1000 nM. Same read-out and setting: to `NC1(C2CC2)C2CC3CC1CC(Oc1cc4cc[nH]c(=O)c4cc1Cl)(C3)C2` (single isomer, unassigned) [Example 11, 6-(4-Amino-4-cyclopropyl-adamantan-1-yloxy)-7-chloro-2H-isoquinolin-1-one] belongs 10 to 100 nM; to `O=c1[nH]ccc2cc(OC34CC5CC(C3)C(NCc3ccccc3)C(C5)C4)c(Cl)cc12` (single isomer, unassigned) [Example 12, 6-(4-Benzylamino-adamantan-1-yloxy)-7-chloro-2H-isoquinolin-1-one], 100 to 1000 nM.

Consider `N[C@]12CC3CC(C1)[C@H](Oc1cc4cc[nH]c(=O)c4cc1Cl)C(C3)C2` (single isomer, unassigned) [Example 14, Cis-6-(5-Amino-adamantan-2-yloxy)-7-chloro-2H-isoquinolin-1-one], for which the IC50 was at most 10 nM. For the molecule `N[C@]12CC3CC(C1)[C@@H](Oc1cc4cc[nH]c(=O)c4cc1Cl)C(C3)C2` (single isomer, unassigned) [Example 15, Trans-6-(5-Amino-adamantan-2-yloxy)-7-chloro-2H-isoquinolin-1-one], the IC50 is at most 10 nM. Consider `Cc1cc2c(=O)[nH]ccc2cc1OC1C2CC3CC1CC(N)(C3)C2` (single isomer, unassigned) [Example 16, 6-(5-Amino-adamantan-2-yloxy)-7-methyl-2H-isoquinolin-1-one], for which the pIC50 entry is reported as “+++++++ (8.0≦pIC50)”.

In the case of `NC12C[C@H]3C[C@@H](C1)CC(Oc1cc4cc[nH]c(=O)c4cc1Cl)(C3)C2` [Example 13, 6-(3-Amino-adamantan-1-yloxy)-7-chloro-2H-isoquinolin-1-one], the IC50 is 100 to 1000 nM. As to `N[C@H]1C[C@H]2COC[C@@H](C1)[C@H]2Oc1cc2cc[nH]c(=O)c2cc1Cl` [Example 17, 6-{[(7-Endo,9-anti)-7-amino-3-oxabicyclo[3.3.1]non-9-yl]oxy}-7-chloroisoquinolin-1(2H)-one], the IC50 was 10 to 100 nM. Turning to `N[C@H]1C[C@H]2COC[C@@H](C1)[C@@H]2Oc1cc2cc[nH]c(=O)c2cc1Cl` [Example 18, 6-{[(7-endo,9-syn)-7-amino-3-oxabicyclo[3.3.1]non-9-yl]oxy}-7-chloroisoquinolin-1(2H)-one], the IC50 was 10 to 100 nM. Turning to `N[C@H]1C[C@H]2CSC[C@@H](C1)[C@H]2Oc1cc2cc[nH]c(=O)c2cc1Cl` [Example 19, 6-{[(7-Endo,9-anti)-7-amino-3-thiabicyclo[3.3.1]non-9-yl]oxy}-7-chloroisoquinolin-1(2H)-one], the IC50 was 10 to 100 nM. Same read-out and setting: the same measure for `N[C@H]1C[C@H]2CSC[C@@H](C1)[C@@H]2Oc1cc2cc[nH]c(=O)c2cc1Cl` [Example 20, 6-{[(7-endo,9-syn)-7-amino-3-thiabicyclo[3.3.1]non-9-yl]oxy}-7-chloroisoquinolin-1(2H)-one]: 10 to 100 nM.

`O=c1[nH]ccc2cc(O[C@H]3CC[C@@]4(CCCN4)CC3)c(Cl)cc12` [Example 22, 6-(1-Aza-spiro[4.5]dec-8-yloxy)-7-chloro-2H-isoquinolin-1-one]: the half-maximal inhibitory concentration (IC50) was 10 to 100 nM.

(Values after US8524737B2, “Bi- and polycyclic substituted isoquinoline and isoquinolinone derivatives” (Sanofi, priority 2008, dated 2013).)
